Reference: publication PMC9873307, “Methylone, a rapid acting entactogen with robust anxiolytic and antidepressant-like activity” (Frontiers in Psychiatry, 2023)
pIC50: −log10 of the molar value. Read-outs that look alike come from different tables or passages of the source.

Legend:
[1] = system: other 5-HT, NE, or DA receptors; design: method as in PMID 31063768; settings: cited from earlier work
serotonin uptake = settings: cited from earlier work
brain serotonin = settings: repeated doses; cited from earlier work
[2] = binge-dosing regimen; cited from earlier work
male Sprague Dawley rats = test: Forced swim test (FST); format: in vivo, rat; settings: for percent time spent immobile: 30 min before 5-min test
Description: Male Sprague Dawley rats (Charles River Laboratories) weighing 180–200 g on arrival, were used for all behavioral studies, which took place at Melior Discovery (Exton, PA, USA). Rats acclimated to their home cages for at least 1 week before testing, were maintained in a controlled environment on a 12 h light/dark cycle, with no more than 2 rats per cage. Animals received ad libitum access to standard rodent chow and water and were assigned randomly to treatment groups. All animal use and procedures were in accordance with established protocols approved by the Melior IACUC committee, Melior Standard Operation Procedures (SOP), and Transcend Therapeutics. Distinct cohorts of animals were used for each experiment/Figure presented in this manuscript.
Methylone HCl (0.5–30 mg/kg; Cayman Chemical) or Fluoxetine HCl (10 mg/kg; Sigma-Aldrich) were formulated in sterile 0.9% saline vehicle before IP administration. Control animals received saline vehicle. Methylone or saline was administered 30 min prior to FST or OFT testing sessions. Fluoxetine or saline were administered 23.5, 5, and 1 h prior to testing, consistent with previous studies ([19]).
All studies were performed and scored by an experimenter blind to treatment group according to standard protocols at Melior Discovery (Exton, PA, USA) and based on published “modified FST” procedures ([20]). Briefly, rats were placed in a circular plexiglass container (29.2 cm diameter, 49.5 cm height) filled with water to a depth of 30 cm so rats could not support themselves by touching the bottom of the tank. Water was maintained at 22–25°C and was changed for every animal. Day 1 (Training) consisted of a 15 min acclimation trial, and Day 2 (Testing, 24 h later) consisted of the 5 min test. A time sampling procedure was employed where animals were observed every 5 s for the duration of the test session (60 counts or 5 min) and scored for immobility (defined as the failure to struggle), swimming (defined as a circular movement around the tank), or climbing (defined as an upward escape behavior). Data are expressed as the percent time spent immobile, swimming, or climbing for the 5-min testing session (e.g., the number of immobility counts divided by 60). Therefore, to extrapolate these values to time spent immobile in minutes, one can multiply the percent time immobile by 5 min.

PTSD patients = system: PTSD patients; design: method as in earlier work; settings: retrospective clinical case series; cited from earlier work
[3] = system: serotonin receptor 1A (5-HTR1A); design: method as in PMID 23583454; settings: not all reports support activity ([43]); cited from earlier work
[4] = Pharmacokinetics in plasma and brain after IP dosing; format: in vivo; settings: rat; for Kp: brain and plasma; for Kp / MRT last / half-life: ip
Description: Pharmacokinetics studies were carried out at WuXi Apptec, Inc. (Cranbury, NJ, USA) using standard protocols. All animal use and procedures were approved by the WuXi Apptec, Inc., IACUC. Briefly, terminal blood and brain samples were collected from 6 to 8 week old male Sprague Dawley rats (Hilltop Lab Animals, Inc., Scottsdale, PA, USA) at 0.25, 0.5, 1, 2, 4, and 8 h (N = 3 per group per time point) for the determination of plasma concentrations of methylone following intraperitoneal (IP) dosing of 5, 10, or 15 mg/kg methylone. Since these were terminal collections, three independent rats per group were used for each time point in a single PK curve from which PK parameters (Cmax, AUC, etc.) were generated. Samples were collected into K2EDTA tubes on ice and centrifuged at 3000 × g at 4°C for 5 min within 30 min of collection. Plasma samples were stored at −80°C until analysis by liquid chromatography tandem mass spectrometry (LC-MS/MS). The bioanalytical assay provided a lower limit of quantification (LLOQ) of 1 ng/mL and an upper limit of quantification (ULOQ) of 3000 ng/mL for methylone. The plasma concentration-time data were analyzed using Phoenix WinNonlin (version 8.3) to characterize the PK properties of the analyte. The non-compartmental analysis model and the linear/log trapezoidal method were applied to the calculation of the PK parameters.

rodents = system: rodents; design: method as in PMID 23839026, PMID 28882561, PMID 22509960, PMID 22922498; settings: cited from earlier work
healthy volunteers = settings: cited from earlier work
[5] = male, Sprague Dawley, plasma, 5 mg/kg IP
[6] = male, Sprague Dawley, plasma, 10 mg/kg IP
[7] = male, Sprague Dawley, plasma, 15 mg/kg IP

CNC(C)C(=O)c1ccc2c(c1)OCO2 (centres unmarked) [methylone, 3,4-methylenedioxy-N-methylcathinone]
affinity for other 5-HT, NE, or DA receptors [1]: weak, if any, affinity
lower potency for inhibition of serotonin uptake vs MDMA (serotonin uptake; compared with MDMA): 3–4 ×
less potent inhibitor of serotonin uptake than MDMA (serotonin uptake; in vitro, compared with MDMA): 3–4 fold
pIC50 (serotonin uptake; in vitro, read-out: IC50 for inhibition of serotonin uptake): 5.24
depletion of brain serotonin (brain serotonin): do not deplete brain serotonin
effect on anxiety [2]: anxiogenic effects
reduced immobility relative to Vehicle controls (male Sprague Dawley rats; after a single dose of methylone): 78–98%
duration of antidepressant-like effect (male Sprague Dawley rats; after a single dose of methylone 15 mg/kg IP): at least 72 h
percent time spent immobile (male Sprague Dawley rats; methylone 5 mg/kg IP, Vehicle 63.9 ± 2.7%): 31.9 ± 4.7%
climbing vs vehicle on retest (male Sprague Dawley rats; methylone 15 mg/kg IP once, 30 min, 24, 72 h, Figure 3D): small but significant effect of methylone on climbing was observed at 30 min only
swimming vs vehicle on retest (male Sprague Dawley rats; methylone 15 mg/kg IP once, 30 min, 24, 72 h, Figure 3F): significantly increasing swimming at all three time points tested
immobility vs vehicle on retest (male Sprague Dawley rats; methylone 15 mg/kg IP once, tested 30 min, 24 and 72 h, Figure 3B): reducing immobility significantly at all-time points
climbing behavior vs controls (male Sprague Dawley rats; methylone 0.5–30 mg/kg IP dose response, 30 min before, Figure 1D): increased only by low to mid doses of methylone (5–10 mg/kg)
percent time spent immobile (male Sprague Dawley rats; methylone 10–15 mg/kg IP, Vehicle 63.9 ± 2.7%): 4.2 ± 1.3%
immobility at highest doses (male Sprague Dawley rats; methylone 20–30 mg/kg, not statistically significant): trend toward less reduction in immobility
climbing compared to vehicle (male Sprague Dawley rats; methylone alone 5 mg/kg IP 30 min before, Figure 6C): significantly increased climbing
% time immobile (male Sprague Dawley rats; methylone alone, 15 mg/kg, Figure 1B, Vehicle 63.9 ± 2.7%): 4.2 ± 1.8%
dose of first significant effect on immobility (male Sprague Dawley rats; methylone dose response): 5 mg/kg
dose of maximal effect on immobility (male Sprague Dawley rats; methylone dose response): 10 mg/kg
swimming behavior vs controls (male Sprague Dawley rats; methylone mid to high doses, 30 min before, Figure 1F): significantly increased
change in immobility vs vehicle control (male Sprague Dawley rats; methylone single low dose 5 mg/kg IP, 30 min before): ~50%
onset of effect (male Sprague Dawley rats; single dose of methylone): ≤ 30 min
reduction of immobility vs. controls (male Sprague Dawley rats; single dose of methylone (5–30 mg/kg) 30 min prior to testing): ~95%
effect on symptoms of PTSD (PTSD patients): alleviates symptoms of PTSD
activity at 5-HTR1A [3]: partial agonist
plasma concentration ([4]; after 5 mg/kg dose): approximately 8 μM
plasma concentration ([4]; after 10 mg/kg dose): ~18 µM
AUC0–last ([4]; brain, 5 mg/kg IP): 1661 ng·h/g
Tlast ([4]; brain, 5 mg/kg IP): 4.00 h
AUC0–last ([4]; brain, 10 mg/kg IP): 5576 ng·h/g
Tlast ([4]; brain, 10 mg/kg IP): 4.00 h
AUC0–last ([4]; brain, 15 mg/kg IP): 13201 ng·h/g
Tlast ([4]; brain, 15 mg/kg IP): 8.00 h
Kp ([4]; male, Sprague Dawley, 5 mg/kg, 5 mg/kg IP, read-out: AUC ratio (brain: plasma)): 1.83
Kp ([4]; male, Sprague Dawley, 10 mg/kg, 10 mg/kg IP, read-out: AUC ratio (brain: plasma)): 1.72
Kp ([4]; male, Sprague Dawley, 15 mg/kg, 15 mg/kg IP, read-out: AUC ratio (brain: plasma)): 1.8
Kp ([4]; male, Sprague Dawley, 15 mg/kg, across 5, 10, 15 mg/kg IP, read-out: brain to plasma AUC ratio): ~1.8
MRT last ([4]; male, Sprague Dawley, brain, 5 mg/kg, brain, 5 mg/kg IP, read-out: MRT0–last): 41.8 min
half-life ([4]; male, Sprague Dawley, brain, 5 mg/kg, brain, 5 mg/kg IP, read-out: T1/2 (converted)): 41.5 min
MRT last ([4]; male, Sprague Dawley, brain, 10 mg/kg, brain, 10 mg/kg IP, read-out: MRT0–last): 61.8 min
half-life ([4]; male, Sprague Dawley, brain, 10 mg/kg, brain, 10 mg/kg IP, read-out: T1/2 (converted)): 36.4 min
MRT last ([4]; male, Sprague Dawley, brain, 15 mg/kg, brain, 15 mg/kg IP, read-out: MRT0–last): 60.6 min
half-life ([4]; male, Sprague Dawley, brain, 15 mg/kg, brain, 15 mg/kg IP, read-out: T1/2 (converted)): 53 min
MRT last ([4]; male, Sprague Dawley, plasma, 5 mg/kg, plasma, 5 mg/kg IP, read-out: MRT0–last): 40 min
half-life ([4]; male, Sprague Dawley, plasma, 5 mg/kg, plasma, 5 mg/kg IP, read-out: T1/2 (converted)): 35.9 min
MRT last ([4]; male, Sprague Dawley, plasma, 10 mg/kg, plasma, 10 mg/kg IP, read-out: MRT0–last): 64.2 min
half-life ([4]; male, Sprague Dawley, plasma, 10 mg/kg, plasma, 10 mg/kg IP, read-out: T1/2 (converted)): 40.4 min
MRT last ([4]; male, Sprague Dawley, plasma, 15 mg/kg, across 5, 10, 15 mg/kg IP, read-out: mean residence time (MRT0–last)): 42 to 67.8 min
half-life ([4]; male, Sprague Dawley, plasma, 15 mg/kg, across 5, 10, 15 mg/kg IP, read-out: terminal elimination half-life (T1/2)): 36 to 48 min
MRT last ([4]; male, Sprague Dawley, plasma, 15 mg/kg, plasma, 15 mg/kg IP, read-out: MRT0–last): 67.8 min
half-life ([4]; male, Sprague Dawley, plasma, 15 mg/kg, plasma, 15 mg/kg IP, read-out: T1/2 (converted)): 48.7 min
Cmax ([4]; male, Sprague Dawley, brain, 5 mg/kg IP): 3510 ng/g
Cmax ([4]; male, Sprague Dawley, brain, 10 mg/kg IP): 8020 ng/g
Cmax ([4]; male, Sprague Dawley, brain, 15 mg/kg IP): 20000 ng/g
AUC(0-t) [4, 5]: 908 ng·h/mL
Cmax [4, 5]: 1980 ng/mL
AUC(0-t) [4, 6]: 3240 ng·h/mL
Cmax [4, 6]: 4510 ng/mL
AUC(0-t) [4, 7]: 7320 ng·h/mL
Cmax [4, 7]: 8470 ng/mL
Tmax ([4]; male, Sprague Dawley, plasma, 5, 10 or 15 mg/kg IP): 15 min
Tlast ([4]; plasma, 5 mg/kg IP): 4.00 h
Tlast ([4]; plasma, 10 mg/kg IP): 8.00 h
Tlast ([4]; plasma, 15 mg/kg IP): 8.00 h
locomotor activity (rodents): increase locomotor activity
tolerability in two Phase 1 studies (healthy volunteers; healthy volunteers): well-tolerated
tolerability in phase 1 clinical study (healthy volunteers; human doses approximately 100–150 mg): well tolerated, with no severe adverse events reported
tolerability in clinical studies (healthy volunteers; human): well tolerated
